Experimental data taken from US20240382629A1, “HETEROBIVALENT AND HOMOBIVALENT AGENTS TARGETING FIBROBLAST ACTIVATION PROTEIN ALPHA AND/OR PROSTATE-SPECIFIC MEMBRANE ANTIGEN” (The Johns Hopkins University, priority 2021, published 2024).
Values joined by “and” are separate entries in the source; they are usually repeats but may differ in a detail not shown here. Equal entries are not always repeated.

System: U87 tumor
Test: Biodistribution ([^18F]JHU1221823), carrier / specific activity study
Type: in vivo, mouse
Conditions: individual mouse
Source text: Biodistribution of Representative Compounds

[1] = NOD/SCID, U87 tumor, Carrier 700, 60 min post injection
[2] = Nude mice, U87 tumor, Baseline (~5000 mCi/μmol), 60 min post injection
[3] = Nude mice, U87 tumor, Carrier 350 (350 mCi/μmol), 60 min post injection
[4] = Nude mice, U87 tumor, Carrier 700, 60 min post injection
[5] = U87 tumor, Baseline, second block (stands before <NOD/SCID> heading), 60 min post injection

**Q.** For `N#C[C@@H]1CCCN1C(=O)CNC(=O)c1ccnc2ccc(OCCCNC(=O)CCOCCOCCOCCOCCNC(=O)[C@H](CCCCNC(=O)c3ccc([18F])nc3)NC(=O)CN3CCN(CC(=O)O)CCN(CC(=O)O)CCN(CC(=O)O)CC3)cc12` [[^18F]JHU1221823], which “Liver % ID/g” value [1] is on record?
**A.** 2.36 % ID/g

**Q.** And the “Lung % ID/g” value [1]?
**A.** 3.66 % ID/g

**Q.** And the “Muscle % ID/g” value [1]?
**A.** 1.99 % ID/g

**Q.** What about the “Pancreas % ID/g” value [1] of the same compound?
**A.** 13.03 % ID/g

**Q.** What about the “Salivary gland % ID/g” value [1] of the same compound?
**A.** 11.31 % ID/g

**Q.** And the “Small intestine % ID/g” value [1]?
**A.** 3.48 % ID/g

**Q.** And the “Spleen % ID/g” value [1]?
**A.** 1.46 % ID/g

**Q.** And the “Stomach % ID/g” value [1]?
**A.** 1.64 % ID/g

**Q.** What about the “Tumor % ID/g” value [1] of the same compound?
**A.** 7.79 % ID/g

**Q.** What about the “Bladder % ID/g” value [2] of the same compound?
**A.** 2.02 % ID/g and 2.74 % ID/g

**Q.** What about the “Blood % ID/g” value [2] of the same compound?
**A.** 10.83 % ID/g and 12.08 % ID/g

**Q.** What about the “Brain % ID/g” value [2] of the same compound?
**A.** 0.22 % ID/g and 0.24 % ID/g

**Q.** And the “Fat % ID/g” value [2]?
**A.** 1.10 % ID/g and 0.89 % ID/g

**Q.** And the “Femur % ID/g” value [2]?
**A.** 1.98 % ID/g and 2.84 % ID/g

**Q.** What about the “Heart % ID/g” value [2] of the same compound?
**A.** 5.09 % ID/g and 5.98 % ID/g

**Q.** What about the “Kidney % ID/g” value [2] of the same compound?
**A.** 2.76 % ID/g and 3.06 % ID/g

**Q.** And the “Large intestine % ID/g” value [2]?
**A.** 1.38 % ID/g and 1.42 % ID/g

**Q.** What about the “Liver % ID/g” value [2] of the same compound?
**A.** 3.56 % ID/g and 3.06 % ID/g

**Q.** What about the “Lung % ID/g” value [2] of the same compound?
**A.** 6.48 % ID/g and 7.46 % ID/g

**Q.** What about the “Muscle % ID/g” value [2] of the same compound?
**A.** 1.44 % ID/g and 2.06 % ID/g

**Q.** And the “Pancreas % ID/g” value [2]?
**A.** 3.42 % ID/g and 3.30 % ID/g

**Q.** And the “Salivary gland % ID/g” value [2]?
**A.** 6.35 % ID/g and 7.47 % ID/g

**Q.** And the “Small intestine % ID/g” value [2]?
**A.** 2.47 % ID/g and 2.93 % ID/g

**Q.** What about the “Spleen % ID/g” value [2] of the same compound?
**A.** 2.17 % ID/g and 1.96 % ID/g

**Q.** And the “Stomach % ID/g” value [2]?
**A.** 1.14 % ID/g and 1.32 % ID/g

**Q.** And the “Tumor % ID/g” value [2]?
**A.** 2.14 % ID/g and 2.52 % ID/g

**Q.** What about the “Bladder % ID/g” value [3] of the same compound?
**A.** 1.62 % ID/g and 1.85 % ID/g

**Q.** And the “Blood % ID/g” value [3]?
**A.** 6.11 % ID/g and 4.56 % ID/g

**Q.** And the “Brain % ID/g” value [3]?
**A.** 0.16 % ID/g and 0.12 % ID/g

**Q.** And the “Fat % ID/g” value [3]?
**A.** 0.54 % ID/g and 1.24 % ID/g

**Q.** And the “Femur % ID/g” value [3]?
**A.** 3.83 % ID/g and 4.47 % ID/g

**Q.** And the “Heart % ID/g” value [3]?
**A.** 2.83 % ID/g and 2.18 % ID/g

**Q.** What about the “Kidney % ID/g” value [3] of the same compound?
**A.** 2.25 % ID/g and 1.88 % ID/g

**Q.** What about the “Large intestine % ID/g” value [3] of the same compound?
**A.** 1.92 % ID/g and 1.61 % ID/g

**Q.** And the “Liver % ID/g” value [3]?
**A.** 2.06 % ID/g and 1.75 % ID/g

**Q.** And the “Lung % ID/g” value [3]?
**A.** 3.70 % ID/g and 3.20 % ID/g

**Q.** And the “Muscle % ID/g” value [3]?
**A.** 2.58 % ID/g and 2.23 % ID/g

**Q.** And the “Pancreas % ID/g” value [3]?
**A.** 5.80 % ID/g and 6.78 % ID/g

**Q.** What about the “Salivary gland % ID/g” value [3] of the same compound?
**A.** 10.81 % ID/g and 11.50 % ID/g

**Q.** What about the “Small intestine % ID/g” value [3] of the same compound?
**A.** 2.29 % ID/g and 2.54 % ID/g

**Q.** And the “Spleen % ID/g” value [3]?
**A.** 1.45 % ID/g and 1.12 % ID/g

**Q.** And the “Stomach % ID/g” value [3]?
**A.** 1.60 % ID/g and 1.53 % ID/g

**Q.** What about the “Tumor % ID/g” value [3] of the same compound?
**A.** 2.01 % ID/g and 2.53 % ID/g

**Q.** And the “Bladder % ID/g” value [4]?
**A.** 2.15 % ID/g and 2.30 % ID/g

**Q.** What about the “Blood % ID/g” value [4] of the same compound?
**A.** 10.55 % ID/g and 9.33 % ID/g

**Q.** And the “Brain % ID/g” value [4]?
**A.** 0.21 % ID/g and 0.19 % ID/g

**Q.** What about the “Fat % ID/g” value [4] of the same compound?
**A.** 0.41 % ID/g and 0.56 % ID/g

**Q.** What about the “Femur % ID/g” value [4] of the same compound?
**A.** 2.93 % ID/g and 3.18 % ID/g

**Q.** And the “Heart % ID/g” value [4]?
**A.** 4.92 % ID/g and 4.38 % ID/g

**Q.** What about the “Kidney % ID/g” value [4] of the same compound?
**A.** 2.54 % ID/g and 2.52 % ID/g

**Q.** And the “Large intestine % ID/g” value [4]?
**A.** 1.45 % ID/g and 1.79 % ID/g

**Q.** What about the “Liver % ID/g” value [4] of the same compound?
**A.** 2.76 % ID/g and 2.85 % ID/g

**Q.** And the “Lung % ID/g” value [4]?
**A.** 6.05 % ID/g and 5.08 % ID/g

**Q.** And the “Muscle % ID/g” value [4]?
**A.** 2.06 % ID/g and 2.07 % ID/g

**Q.** What about the “Pancreas % ID/g” value [4] of the same compound?
**A.** 3.40 % ID/g and 4.43 % ID/g

**Q.** What about the “Salivary gland % ID/g” value [4] of the same compound?
**A.** 9.08 % ID/g and 7.18 % ID/g

**Q.** And the “Small intestine % ID/g” value [4]?
**A.** 2.37 % ID/g and 1.98 % ID/g

**Q.** What about the “Spleen % ID/g” value [4] of the same compound?
**A.** 1.75 % ID/g and 1.70 % ID/g

**Q.** And the “Stomach % ID/g” value [4]?
**A.** 1.18 % ID/g and 1.57 % ID/g

**Q.** And the “Tumor % ID/g” value [4]?
**A.** 1.81 % ID/g and 2.22 % ID/g

**Q.** What about the “Bladder % ID/g” value [5] of the same compound?
**A.** 3.22 % ID/g and 10.62 % ID/g

**Q.** What about the “Blood % ID/g” value [5] of the same compound?
**A.** 11.98 % ID/g and 10.01 % ID/g

**Q.** And the “Brain % ID/g” value [5]?
**A.** 0.23 % ID/g and 0.21 % ID/g

**Q.** And the “Fat % ID/g” value [5]?
**A.** 0.53 % ID/g and 0.71 % ID/g

**Q.** And the “Femur % ID/g” value [5]?
**A.** 1.95 % ID/g and 2.78 % ID/g

**Q.** What about the “Heart % ID/g” value [5] of the same compound?
**A.** 7.41 % ID/g and 6.48 % ID/g

**Q.** And the “Kidney % ID/g” value [5]?
**A.** 3.14 % ID/g and 3.67 % ID/g

**Q.** And the “Large intestine % ID/g” value [5]?
**A.** 1.66 % ID/g and 2.70 % ID/g

**Q.** And the “Liver % ID/g” value [5]?
**A.** 4.04 % ID/g and 4.72 % ID/g

**Q.** What about the “Lung % ID/g” value [5] of the same compound?
**A.** 7.27 % ID/g and 6.79 % ID/g

**Q.** And the “Muscle % ID/g” value [5]?
**A.** 1.14 % ID/g and 2.13 % ID/g

**Q.** And the “Pancreas % ID/g” value [5]?
**A.** 6.82 % ID/g and 9.52 % ID/g

**Q.** What about the “Salivary gland % ID/g” value [5] of the same compound?
**A.** 11.69 % ID/g and 12.09 % ID/g

**Q.** And the “Small intestine % ID/g” value [5]?
**A.** 3.79 % ID/g and 3.54 % ID/g

**Q.** And the “Spleen % ID/g” value [5]?
**A.** 2.33 % ID/g and 1.99 % ID/g

**Q.** What about the “Stomach % ID/g” value [5] of the same compound?
**A.** 1.66 % ID/g and 1.97 % ID/g

**Q.** What about the “Tumor % ID/g” value [5] of the same compound?
**A.** 1.17 % ID/g and 5.00 % ID/g

**Q.** And the “Bladder % ID/g” value (carrier not given)?
**A.** 6.41 % ID/g and 2.64 % ID/g

**Q.** And the “Blood % ID/g” value (carrier not given)?
**A.** 9.28 % ID/g and 9.80 % ID/g

**Q.** And the “Brain % ID/g” value (carrier not given)?
**A.** 0.23 % ID/g and 0.22 % ID/g

**Q.** And the “Fat % ID/g” value (carrier not given)?
**A.** 0.47 % ID/g and 1.68 % ID/g

**Q.** And the “Femur % ID/g” value (carrier not given)?
**A.** 2.55 % ID/g and 3.11 % ID/g

**Q.** What about the “Heart % ID/g” value (carrier not given) of the same compound?
**A.** 4.31 % ID/g and 4.98 % ID/g

**Q.** What about the “Kidney % ID/g” value (carrier not given) of the same compound?
**A.** 2.70 % ID/g and 2.77 % ID/g

**Q.** What about the “Large intestine % ID/g” value (carrier not given) of the same compound?
**A.** 1.29 % ID/g and 1.69 % ID/g

**Q.** What about the “Liver % ID/g” value (carrier not given) of the same compound?
**A.** 2.68 % ID/g and 3.29 % ID/g

**Q.** What about the “Lung % ID/g” value (carrier not given) of the same compound?
**A.** 5.58 % ID/g and 5.91 % ID/g

**Q.** What about the “Muscle % ID/g” value (carrier not given) of the same compound?
**A.** 1.79 % ID/g and 1.78 % ID/g

**Q.** And the “Pancreas % ID/g” value (carrier not given)?
**A.** 1.62 % ID/g and 2.66 % ID/g

**Q.** What about the “Salivary gland % ID/g” value (carrier not given) of the same compound?
**A.** 7.44 % ID/g and 6.43 % ID/g

**Q.** And the “Small intestine % ID/g” value (carrier not given)?
**A.** 2.59 % ID/g and 3.46 % ID/g

**Q.** And the “Spleen % ID/g” value (carrier not given)?
**A.** 1.85 % ID/g and 2.43 % ID/g

**Q.** What about the “Stomach % ID/g” value (carrier not given) of the same compound?
**A.** 0.84 % ID/g and 1.45 % ID/g

**Q.** What about the “Tumor % ID/g” value (carrier not given) of the same compound?
**A.** 4.35 % ID/g and 7.0+ % ID/g
